Reference: US20130273649A1, “Culture medium for pluripotent stem cells” (UNIVERSITY OF SOUTHERN CALIFORNIA, priority 2012, published 2013)

Experiments:
Axin1 = assay: Western blot of Axin1 in mouse EpiSCs; format: cell-based; conditions: CD1 mouse EpiSCs treated 12 h
Procedure: (A) TOPFlash™ assay in CD1 mouse EpiSCs treated with the indicated inhibitors for 12 hours. Data represent mean±s.d. of three biological replicates. (B) Representative phase contrast images of CD1 mouse EpiSCs cultured in the indicated conditions for 7 days. (C) Western blot analysis of CD1 mouse EpiSCs treated with the indicated inhibitors for 12 h. (D) qRT-PCR analysis of Axin1 and Axin2 mRNA levels in CD1 mouse EpiSCs stably transfected with Axin1 shRNA or Axin2 shRNA. Data represent mean±s.d. of three biological replicates. (E) Colony assay on CD1 mouse EpiSCs stably transfected with scramble, Axin1, or Axin2 shRNAs. Cells were plated onto a 6-well plate at a density of 5,000 cells/well and cultured in CHIR/IWR-1. Colonies were counted 7 days after plating. Data represent the total combined numbers of colonies from two independent experiments in which each shRNA-transfected group was cultured in one well of a 6-well plate. (F) Representative phase contrast images of CD 1 mouse EpiSCs stably transfected with the indicated shRNAs and cultured in CHIR/IWR-1 for 7 days. (G) Western blot analysis of CD1 mouse EpiSCs overexpressing Flag-tagged Axin1 or Axin2. (H) Representative phase contrast images of CD1 mouse EpiSCs overexpressing Axin1 or Axin2 and cultured in CHIR for 7 days. Axin2-overexpressing EpiSCs could be continually passaged in CHIR alone. Scale bars, 50 μm (B, F and H)
Next, we investigated the mechanism by which CHIR/XAV promotes EpiSC self-renewal. By inhibiting GSK3 phosphorylation of β-catenin, CHIR stabilizes β-catenin, which then trans-locates to the nucleus and forms complexes with DNA-binding proteins, including TCFs, to activate transcription (Logan and Nusse, 2004). […] Axin has two isoforms, Axin1 and Axin2. […] The expression level of Axin2, but not Axin1, was also elevated by CHIR treatment (FIG. 4C), an outcome consistent with previous findings that Axin2 is a direct downstream target of Wnt/β-catenin signaling (Jho et al., 2002). […]

CD1 EpiSCs = assay: Clonogenicity: colony formation after single-cell deposition of EpiSCs; format: cell-based, mouse; conditions: 96-well plate, CHIR only
Procedure: (A) Representative phase-contrast images of CD1 mouse EpiSCs cultured in the indicated conditions. […] (B) Phase-contrast image showing differentiating CD1 mouse EpiSCs at the 2nd passage in GMEM/10% FBS with 2 μM XAV. (C) CD1 mouse EpiSCs were cultured in CHIR/XAV for 7 passages and were subsequently immunostained with indicated antibodies against pluripotency markers. (D) Numbers of undifferentiated colonies formed by day 9 after single-cell deposition of CD1 EpiSCs into 0.1% gelatin-coated 96-well plates and cultured in the conventional mouse ESC medium supplemented with the indicated small molecules or cytokines Results are shown as mean±s.d. of six biological replicates. (E) De novo derivation of mouse EpiSCs. Epiblast tissue (outlined in dashed line) of the E5.75 CD1 mouse embryo was dissected and cultured in CHIR/XAV. The outgrowth formed from the plated epiblast (middle panel) was disaggregated to establish a stable EpiSC line (right panel). Thirteen […] established from 13 plated CD1 mouse embryos. Scale bars, 50 μ[…]). See also FIG. 8. We compared the clonogenicity of EpiSCs cultured in different conditions. […] EpiSC colonies formed in CHIR/XAV were readily expanded to establish stable cell lines. […] As expected, in the CHIR/XAV condition, EpiSCs were readily derived from embryonic day (E) 5.75 embryos of CD1 and 129SvE mice (FIGS. 1E and 8B). […]

| SMILES | amount of Axin1 protein (Axin1) | undifferentiated colony formation from single EpiSC (CD1 EpiSCs) |
| --- | --- | --- |
| Oc1nc(-c2ccc(C(F)(F)F)cc2)nc2c1CSCC2 [XAV939, 3,5,7,8-Tetrahydro-2-[4-(trifluoromethyl)phenyl]-4H-thiopyrano[4,3-d]pyrimidin-4-one] | significantly increased | – |
| Cc1c[nH]c(-c2cnc(NCCNc3ccc(C#N)cn3)nc2-c2ccc(Cl)cc2Cl)n1 [CHIR99021, 6-((2-((4-(2,4-Dichlorophenyl)-5-(4-methyl-1H-imidazol-2-yl)pyrimidin-2-yl)amino)ethyl)amino)nicotinonitrile] | not Axin1 | No undifferentiated colonies formed |
